Tests used:
Format in all cases: in vivo
[1] = tested on: Rice Armyworm (Mythimna Separata); test: Efficacy test against rice armyworm, corn leaf dip; settings: 125 ppm, emulsifiable concentrate diluted with water, corn leaves immersed, second instar larvae, after 5 days, 25° C.
Summary of the method: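 Corn leaves dipped 30 s in compound diluted to 125 ppm from an emulsifiable concentrate, air-dried, then offered to five second-instar larvae. Held at 25° C and 65% humidity; mortality scored after 5 days as dead/released ×100. Run in duplicate.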

[2] = tested on: Twospotted Spider Mite (Tetranychus Urticae Koch); test: Efficacy test against twospotted spider mite, spray on kidney bean plant; settings: 125 ppm, wettable powder diluted with water, sprayed, female adults with resistance to an organophosphorus agent on kidney bean, after 3 days
Protocol: The wettable powder obtained according to Formulation of Formulation Example 1 was diluted with water so as to control the concentration of the compound to 125 ppm. Seventeen female adults of twospotted spider mite with resistance to an organophosphorus agent were inoculated on a first true leaf of a kidney bean plant (approximately 7 to 10 days after sprouting) sown in a 3 sun/size pot (9 cm). The diluted solution was sprayed. The pot was placed in a temperature-controlled room at a temperature of 25° C. and a humidity of 65%. After 3 days, the adulticidal rate was examined. The test was repeated twice.

[3] = tested on: Sweetpotato Whitefly (Bemisia Tabaci); test: Efficacy test against sweetpotato whitefly, sprayed tomato leaf; settings: 125 ppm, emulsifiable concentrate diluted with water, adults (type B), after 2 days, 25° C.
Summary of the method: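 Cut tomato leaves were sprayed with an emulsifiable concentrate diluted to 125 ppm compound, air-dried, then infested with seven pairs of type B adults. Leaves were held at 25 °C and 65% humidity, and mortality was counted after 2 days as dead/released × 100. The test was run twice.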

[4] = tested on: Cotton Aphid (Aphis Gossypii); test: Efficacy test against cotton aphid, spray on cucumber plant; settings: 125 ppm, emulsifiable concentrate diluted with water, sprayed over cucumber plant with nymphs, after 5 days, 25° C.
Summary of the method: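 Cucumber plants (~10 days after sprouting) carrying nymphs deposited by cotton aphid adults over 1 day were sprayed with emulsifiable concentrate diluted to 125 ppm compound. Plants were kept at 25 °C and 65% humidity. Mortality after 5 days gave the insecticidal rate (dead/released ×100), from two replicates.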

C=C1SC(=Nc2ccc(C)cc2)C(=CSc2ccc(C(F)(F)F)cc2)CC1(C)C [Compound 2-90]
100%: insecticidal rate [1] | adulticidal rate [2] | insecticidal rate [3] | insecticidal rate [4]

C=C1SC(=Nc2ccc(C)cc2)C(=CSc2nc3ccccc3s2)CC1(C)C [Compound 2-94]
100%: insecticidal rate [1] | adulticidal rate [2] | insecticidal rate [3] | insecticidal rate [4]

C=C1SC(=Nc2ccc(C)cc2)C(=CSc2cccc(C(F)(F)F)c2)CC1(C)C [Compound 2-99]
100%: insecticidal rate [1] | adulticidal rate [2] | insecticidal rate [3] | insecticidal rate [4]

C=C1SC(=Nc2ccc(C)cc2)C(=CSc2ccccc2C(F)(F)F)CC1(C)C [Compound 2-100]
100%: insecticidal rate [1] | adulticidal rate [2] | insecticidal rate [3] | insecticidal rate [4]

C=C1SC(=Nc2ccc(OC)cc2)C(=CSc2ccc([Si](C)(C)C)s2)CC1(C)C [Compound 2-103]
100%: insecticidal rate [1] | adulticidal rate [2] | insecticidal rate [3] | insecticidal rate [4]

C=C1SC(=Nc2ccc(C)cc2)C(=CSc2cccc(C)c2)CC1(C)C [Compound 2-110]
100%: insecticidal rate [1] | adulticidal rate [2] | insecticidal rate [3] | insecticidal rate [4]

C=C1SC(=Nc2ccc(OC)cc2)C(=CSc2ccc(Br)s2)CC1(C)C [Compound 2-117]
100%: insecticidal rate [1] | adulticidal rate [2] | insecticidal rate [3] | insecticidal rate [4]

C=C1SC(=Nc2ccc(C)cc2)C(=CSc2ccc(F)cc2F)CC1(C)C [Compound 2-124]
100%: insecticidal rate [1] | adulticidal rate [2] | insecticidal rate [3] | insecticidal rate [4]

C=C1SC(=Nc2ccc(C)c(C)c2)C(=CSc2ccccc2)CC1(C)C [Compound 2-148]
100%: insecticidal rate [1] | adulticidal rate [2] | insecticidal rate [3] | insecticidal rate [4]

C=C1SC(=Nc2ccc(C)c(C)c2)C(=CSc2cccs2)CC1(C)C [Compound 2-149]
100%: insecticidal rate [1] | adulticidal rate [2] | insecticidal rate [3] | insecticidal rate [4]

C=C1SC(=Nc2ccc(C)c(C)c2)C(=CSc2ccc(F)cc2)CC1(C)C [Compound 2-150]
100%: insecticidal rate [1] | adulticidal rate [2] | insecticidal rate [3] | insecticidal rate [4]

Source: patent US9012493B2, “1-heterodiene derivative and pest control agent” (Nippon Soda Co., Ltd., priority 2009, dated 2015)
